Values after ≈ are worked out from the molar mass of the structure shown. Active and inactive are the calls of the source. The rule behind the calls is not given here.
Tests used:
Staphylococcus aureus [1] = assay: Antibacterial activity against Staphylococcus aureus MTCC 7443 after 24 hrs by serial dilution method; assay type: functional; conditions: for MIC: Staphylococcus aureus, MTCC 7443, 24 h
[2] = Octanol-water partition coefficient, log P of the compound; assay type: physicochemical
Aspergillus fumigatus [3] = assay: Antifungal activity against Aspergillus fumigatus MTCC 2550 after 72 hrs by serial dilution method relative to 11,12-Diphenyl-11a,12-dihydro-11H-indeno[2,1-c][1,5]benzothiazepine; assay type: functional
Pseudomonas aeruginosa [4] = assay: Antibacterial activity against Pseudomonas aeruginosa MTCC 7952 after 24 hrs by serial dilution method; assay type: functional; conditions: for MIC: Pseudomonas aeruginosa, MTCC 7952, 24 h
Escherichia coli [5] = assay: Antibacterial activity against Escherichia coli MTCC 42 after 24 hrs by serial dilution method; assay type: functional; conditions: for MIC: Escherichia coli, MTCC 42, 24 h
Pseudomonas aeruginosa [6] = assay: Antibacterial activity against Pseudomonas aeruginosa MTCC 7952 after 24 hrs by serial dilution method relative to 11,12-Diphenyl-11a,12-dihydro-11H-indeno[2,1-c][1,5]benzothiazepine; assay type: functional
Candida albicans [7] = assay: Antifungal activity against Candida albicans MTCC 183 after 72 hrs by serial dilution method; assay type: functional; conditions: for MIC: Candida albicans, MTCC 183, 72 h
Staphylococcus aureus [8] = assay: Antibacterial activity against Staphylococcus aureus MTCC 7443 after 24 hrs by serial dilution method relative to 11,12-Diphenyl-11a,12-dihydro-11H-indeno[2,1-c][1,5]benzothiazepine; assay type: functional
Escherichia coli [9] = assay: Antibacterial activity against Escherichia coli MTCC 42 after 24 hrs by serial dilution method relative to 11,12-Diphenyl-11a,12-dihydro-11H-indeno[2,1-c][1,5]benzothiazepine; assay type: functional
Aspergillus fumigatus [10] = assay: Antifungal activity against Aspergillus fumigatus MTCC 2550 after 72 hrs by serial dilution method; assay type: functional; conditions: for MIC: Aspergillus fumigatus, MTCC 2550, 72 h
Candida albicans [11] = assay: Antifungal activity against Candida albicans MTCC 183 after 72 hrs by serial dilution method relative to 11,12-Diphenyl-11a,12-dihydro-11H-indeno[2,1-c][1,5]benzothiazepine; assay type: functional
Bacillus subtilis = assay: Antibacterial activity against Bacillus subtilis MTCC 441 after 24 hrs by serial dilution method

Row | MIC (Staphylococcus aureus [1]) | logP [2] | MIC (Pseudomonas aeruginosa [4]) | MIC (Escherichia coli [5]) | MIC (Candida albicans [7]) | MIC (Aspergillus fumigatus [10]) | Compound | -logMIC (Staphylococcus aureus [1]) | Activity (Aspergillus fumigatus [3]) | -logMIC (Pseudomonas aeruginosa [4]) | -logMIC (Escherichia coli [5]) | Activity (Pseudomonas aeruginosa [6]) | -logMIC (Candida albicans [7]) | Activity (Staphylococcus aureus [8]) | Activity (Escherichia coli [9]) | -logMIC (Aspergillus fumigatus [10]) | Activity (Candida albicans [11]) | Activity (Bacillus subtilis)
1 | 52.9 µM (≈ 25 µg/mL) | 8 | 106 µM (≈ 50 µg/mL) | 13.2 µM (≈ 6.24 µg/mL) | 13.2 µM (≈ 6.24 µg/mL) | 6.6 µM (≈ 3.12 µg/mL) | Clc1ccc(C2Sc3cc(Cl)ccc3N=C3c4ccccc4C(c4ccccc4)C32)cc1 (centres undefined) | 1.28 | 94.67% | 0.98 | 1.88 | -70.92% | 1.88 | 14.53% | 89.34% | 2.18 | 78.67% | inactive
2 | 28.5 µM (≈ 12.5 µg/mL) | 7.48 | 57 µM (≈ 25 µg/mL) | 14.2 µM (≈ 6.22 µg/mL) | 28.5 µM (≈ 12.5 µg/mL) | 28.5 µM (≈ 12.5 µg/mL) | Clc1ccc2c(c1)SC(c1ccccc1)C1C(=N2)c2ccccc2C1c1ccccc1 (centres undefined) | 1.55 | 76.99% | 1.24 | 1.85 | 7.91% | 1.55 | 53.95% | 88.53% | 1.55 | 53.95% | inactive

Reference: ChEMBL document CHEMBL2203136, “Synthesis, characterization, biological evaluation and QSAR studies of 11-p-substituted phenyl-12-phenyl-11a,12-dihydro-11H-indeno[2,1-c][1,5]benzothiazepines as potential antimicrobial agents” (Eur J Med Chem, 2012)
